The results in this text go back to ChEMBL document CHEMBL4742398, “Heterocyclyl substituted pyrrolopyridines that are inhibitors of the cdk12 kinase” (2019).

Molecules are shown by their SMILES.

The target of one test is CDK12/Cyclin K (Homo sapiens, UniProt Q9NYV4). In words: Inhibition of CDK12/cyclinK (unknown origin) using RBER-IRStide as substrate and in presence of ATP preincubated for 30 mins followed by addition of substrate measured after 1 hr by ADP-Glo reagent assay. The test is classed as protein-complex assay. A general note: ADP-Glo turns the ADP formed in a reaction into a luminescent signal.
Chain of CDK12/Cyclin K (O75909 whole entry): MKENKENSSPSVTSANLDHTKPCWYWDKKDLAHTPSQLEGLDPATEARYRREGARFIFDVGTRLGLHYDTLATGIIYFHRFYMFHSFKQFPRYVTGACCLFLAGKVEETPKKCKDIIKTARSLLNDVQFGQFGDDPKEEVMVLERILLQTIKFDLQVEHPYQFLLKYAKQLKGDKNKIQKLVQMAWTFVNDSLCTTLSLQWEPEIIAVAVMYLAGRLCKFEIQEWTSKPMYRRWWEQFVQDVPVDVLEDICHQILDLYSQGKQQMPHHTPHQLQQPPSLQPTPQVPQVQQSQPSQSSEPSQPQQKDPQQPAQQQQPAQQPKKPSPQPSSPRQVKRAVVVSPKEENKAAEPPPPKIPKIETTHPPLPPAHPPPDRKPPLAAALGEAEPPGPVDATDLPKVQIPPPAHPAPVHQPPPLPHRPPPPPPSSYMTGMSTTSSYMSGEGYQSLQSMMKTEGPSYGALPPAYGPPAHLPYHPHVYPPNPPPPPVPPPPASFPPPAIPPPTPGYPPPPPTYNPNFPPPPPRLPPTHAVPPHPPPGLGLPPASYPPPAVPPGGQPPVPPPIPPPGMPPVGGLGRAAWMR
Chain of CDK12/Cyclin K (Q9NYV4 whole entry): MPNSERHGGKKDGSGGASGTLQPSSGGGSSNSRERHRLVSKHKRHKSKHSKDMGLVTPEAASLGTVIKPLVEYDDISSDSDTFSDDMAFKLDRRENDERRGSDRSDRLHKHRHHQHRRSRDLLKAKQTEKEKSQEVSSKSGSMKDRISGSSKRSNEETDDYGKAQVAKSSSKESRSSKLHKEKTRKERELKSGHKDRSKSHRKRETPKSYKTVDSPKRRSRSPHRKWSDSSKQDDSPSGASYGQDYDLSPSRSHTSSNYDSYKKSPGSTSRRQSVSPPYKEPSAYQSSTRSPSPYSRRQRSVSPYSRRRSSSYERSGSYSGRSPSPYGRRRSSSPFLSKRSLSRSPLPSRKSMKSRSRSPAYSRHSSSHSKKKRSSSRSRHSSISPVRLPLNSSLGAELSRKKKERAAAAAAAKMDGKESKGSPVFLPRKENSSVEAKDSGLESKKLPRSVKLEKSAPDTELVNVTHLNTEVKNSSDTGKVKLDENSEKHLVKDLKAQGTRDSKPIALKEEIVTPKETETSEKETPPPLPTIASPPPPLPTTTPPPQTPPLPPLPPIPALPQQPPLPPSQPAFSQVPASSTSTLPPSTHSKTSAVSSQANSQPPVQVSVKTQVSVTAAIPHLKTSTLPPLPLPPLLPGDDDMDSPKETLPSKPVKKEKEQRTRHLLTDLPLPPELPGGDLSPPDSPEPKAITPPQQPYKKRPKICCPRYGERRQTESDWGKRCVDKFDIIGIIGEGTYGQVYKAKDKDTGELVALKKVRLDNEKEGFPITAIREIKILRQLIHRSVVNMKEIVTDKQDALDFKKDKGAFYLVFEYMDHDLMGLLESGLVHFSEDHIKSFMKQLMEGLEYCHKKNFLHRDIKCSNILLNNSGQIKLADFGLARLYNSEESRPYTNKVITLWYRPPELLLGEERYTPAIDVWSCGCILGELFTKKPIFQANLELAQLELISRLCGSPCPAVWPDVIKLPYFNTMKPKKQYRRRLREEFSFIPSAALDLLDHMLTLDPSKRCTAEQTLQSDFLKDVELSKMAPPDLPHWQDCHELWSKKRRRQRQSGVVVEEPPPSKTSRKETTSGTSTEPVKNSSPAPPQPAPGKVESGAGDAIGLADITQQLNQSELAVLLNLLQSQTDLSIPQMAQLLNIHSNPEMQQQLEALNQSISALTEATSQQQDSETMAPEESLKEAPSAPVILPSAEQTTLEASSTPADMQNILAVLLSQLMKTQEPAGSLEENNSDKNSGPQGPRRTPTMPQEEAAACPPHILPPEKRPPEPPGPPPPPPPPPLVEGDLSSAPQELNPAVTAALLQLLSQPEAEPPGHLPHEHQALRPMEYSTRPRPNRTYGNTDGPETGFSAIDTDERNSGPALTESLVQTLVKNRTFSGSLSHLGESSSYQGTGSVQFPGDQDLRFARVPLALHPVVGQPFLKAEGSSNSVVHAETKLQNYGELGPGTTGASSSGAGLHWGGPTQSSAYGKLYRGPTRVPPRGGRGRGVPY
Regarding `c1cnn2ncc(-c3ccnc4[nH]c(CN5CCNCC5)cc34)c2c1`, the half-maximal inhibitory concentration (IC50) (as a rule, the concentration needed to halve the response being measured) was at least 1000 nM.

Tested on in a further test: not listed separately
The test is described as follows: Decrease in nuclear foci in human DM1 fibroblast for 24 hrs by fluorescent in situ hybridization assay. The format is functional.
As to `CCC(=O)N1CCC[C@H]1C(=O)NCCc1cc2c(-c3cnn4ncccc34)ccnc2[nH]1`, the IC50 amounted to 10000 nM. Molecule `O=C(CCl)Nc1ccc(C(=O)N2CCC(c3cc4c(-c5cnn6ncccc56)ccnc4[nH]3)C2)cc1` (stereo not drawn) came in with an IC50 of under 1000 nM. `C=CC(=O)N1CCC[C@H]1C(=O)NCCc1cc2c(-c3cnn(C)c3)ccnc2[nH]1` registered a 50% inhibitory concentration (IC50) of 10000 nM. For the molecule `c1cc(-c2ccc3cn[nH]c3c2)c2cc[nH]c2n1`, half-maximal inhibition (IC50) was put at 10000 nM. For `CN(C)C/C=C/C(=O)N1CC[C@@H](OCC(=O)N2CCC(c3cc4c(-c5cnn6ncccc56)ccnc4[nH]3)C2)C1` (stereo partly drawn), the IC50 is 1000 nM. As to `C=CC(=O)N1CC(C(=O)NCCc2cc3c(-c4cnn5ncccc45)ccnc3[nH]2)C1`, the IC50 worked out at 1000 nM. `C=CC(=O)Nc1ccc(C(=O)N2CCN(Cc3cc4c(-c5cnn6ncccc56)ccnc4[nH]3)CC2)cc1` yielded a half-maximal inhibitory concentration (IC50) of 1000 nM.

Molecule `C=CC(=O)N1CCC[C@@H]1C(=O)NCCc1cc2c(-c3cnn4ncccc34)c(Cl)cnc2[nH]1` gave an IC50 of under 1000 nM. Consider `O=C(CCl)Nc1cccc(C(=O)N2CC[C@H](c3cc4c(-c5cnn6ncccc56)ccnc4[nH]3)C2)c1`, for which the concentration for half-maximal inhibition (IC50) was under 1000 nM.

In turn, `C=C(C)C(=O)N1CCC[C@H]1C(=O)NCCc1cc2c(-c3cnn4ncccc34)ccnc2[nH]1` registered an IC50 of 10000 nM. Same read-out and setting: to `C=CC(=O)Nc1ccc(C(=O)N2CCC(c3cc4c(-c5cnn6ncccc56)ccnc4[nH]3)C2)cc1` (stereo not drawn) belongs under 1000 nM; to `C=CC(=O)Nc1ccc(C(=O)NCc2cc3c(-c4cnn5ncccc45)ccnc3[nH]2)cc1`, 1000 nM.

Consider `C[C@@H](Cl)C(=O)N1CCC[C@@H]1C(=O)N1CCC(c2cc3c(-c4cnn5ncccc45)ccnc3[nH]2)C1` (stereo partly drawn), for which the concentration for half-maximal inhibition (IC50) was found to be 1000 nM. Still for that read-out and setting: then `CN(C)C/C=C/C(=O)N1CCC[C@@H](C(=O)N2CCC(c3cc4c(-c5cnn6ncccc56)ccnc4[nH]3)C2)C1` (stereo partly drawn), with 1000 nM; and `N#CN1CCC[C@H](C(=O)NCCc2cc3c(-c4cnn5ncccc45)ccnc3[nH]2)C1`, with 1000 nM. Regarding `Cc1cc2c(-c3cnn4ncccc34)ccnc2[nH]1`, the IC50 is under 1000 nM. The molecule `CC(C)(CCl)C(=O)N1CCC[C@H]1C(=O)NCCc1cc2c(-c3cnn4ncccc34)ccnc2[nH]1` gave an IC50 of 10000 nM.

Molecule `C=CC(=O)Nc1cccc(C(=O)N2CCC(c3cc4c(-c5cnn6ncccc56)ccnc4[nH]3)C2)c1` (stereo not drawn) yielded a concentration for half-maximal inhibition (IC50) of under 1000 nM. The same measure, in the same setting: to `C=CC(=O)N1CCC[C@@H](C(=O)NCCc2cc3c(-c4cnn5ncccc45)ccnc3[nH]2)C1` belongs 1000 nM; to `COc1ccc2c(-c3ccnc4[nH]ccc34)cnn2n1`, 10000 nM. On the same count and under the same terms, to `C=CC(=O)Nc1ccc(C(=O)NCCc2cc3c(-c4cnn5ncccc45)ccnc3[nH]2)cc1` belongs under 1000 nM; to `OCc1cc2c(-c3cnn4ncccc34)ccnc2[nH]1`, 1000 nM.

Molecule `c1cnn2ncc(-c3ccnc4[nH]ccc34)c2c1` came in with an IC50 of under 1000 nM. Still for that read-out and setting: to `C=CC(=O)N1CCC[C@@H]1C(=O)NCCc1cc2c(-c3cnn4ncccc34)ccnc2[nH]1` belongs under 1000 nM. With `O=C([C@H]1CCCN1C(=O)CCl)N1CCC(c2cc3c(-c4cnn5ncccc45)ccnc3[nH]2)C1` (stereo partly drawn), the IC50 is under 1000 nM. On to `C=CC(=O)N1C[C@H](F)C[C@H]1C(=O)NCCc1cc2c(-c3cnn4ncccc34)ccnc2[nH]1`, for which the half-inhibitory concentration (IC50) is under 1000 nM. The same measure, in the same setting: then `C=CC(=O)N1CCC[C@H]1C(=O)OCCc1cc2c(-c3cnn4ncccc34)ccnc2[nH]1`, with under 1000 nM. On the same count and under the same terms, then `C=CC(=O)N1CC2(CC2)C[C@H]1C(=O)NCCc1cc2c(-c3cnn4ncccc34)ccnc2[nH]1`, with 1000 nM.

As for `C=CC(=O)Nc1cccc(C(=O)N2CC[C@H](c3cc4c(-c5cnn6ncccc56)ccnc4[nH]3)C2)c1`, the IC50 is under 1000 nM. Still for that read-out and setting: then `CN(C)C/C=C/C(=O)N1CCC[C@H]1C(=O)NCCc1cc2c(-c3cnn4ncccc34)ccnc2[nH]1`, with 10000 nM; and `C=CC(=O)Nc1cccc(C(=O)N2CCN(Cc3cc4c(-c5cnn6ncccc56)ccnc4[nH]3)CC2)c1`, with 1000 nM; and `O=C(CCl)Nc1cccc(C(=O)N2CCC(c3cc4c(-c5cnn6ncccc56)ccnc4[nH]3)C2)c1` (stereo not drawn), with under 1000 nM. Regarding `C=CC(=O)N1CCCC[C@H]1C(=O)NCCc1cc2c(-c3cnn4ncccc34)ccnc2[nH]1`, the half-inhibitory concentration (IC50) was 1000 nM. The same measure, in the same setting: then `CN(C)C/C=C/C(=O)N1CCC(CC(=O)N2CCC(c3cc4c(-c5cnn6ncccc56)ccnc4[nH]3)C2)CC1` (stereo not drawn), with 10000 nM; and `O=C(CCl)Nc1cccc(C(=O)N2CC[C@@H](c3cc4c(-c5cnn6ncccc56)ccnc4[nH]3)C2)c1`, with under 1000 nM; and `C=CC(=O)NC(Cc1ccccc1)C(=O)NCCc1cc2c(-c3cnn4ncccc34)ccnc2[nH]1` (stereo not drawn), with 1000 nM. With `C=CC(=O)Nc1cccc(C(=O)NCCc2cc3c(-c4cnn5ncccc45)ccnc3[nH]2)c1`, the IC50 was under 1000 nM. The molecule `C=CC(=O)N1CCC[C@H]1C(=O)NCCc1cc2c(-c3cnn4ncccc34)ccnc2[nH]1` showed an IC50 of under 1000 nM. The same measure, in the same setting: to `C=CC(=O)Nc1ccc(C(=O)N2CCC(c3cc4c(-c5c[nH]c6ccccc56)ccnc4[nH]3)C2)cc1` (stereo not drawn) belongs 1000 nM; to `C=CC(=O)N1CCOC[C@@H]1C(=O)NCCc1cc2c(-c3cnn4ncccc34)ccnc2[nH]1`, under 1000 nM.

For `CN(C)C/C=C/C(=O)Nc1ccc(C(=O)N2CCC(c3cc4c(-c5cnn6ncccc56)ccnc4[nH]3)C2)cc1` (stereo not drawn), the IC50 was under 1000 nM.

`NC(=O)c1cc2c(-c3cnn4ncccc34)ccnc2[nH]1`: the midpoint of inhibition, the IC50, lay at 1000 nM. `CN(C)C/C=C/C(=O)Nc1cccc(C(=O)NCCc2cc3c(-c4cnn5ncccc45)ccnc3[nH]2)c1`: the half-maximal inhibitory concentration (IC50) amounted to 10000 nM.

For `C/C=C/C(=O)N1CCC[C@H]1C(=O)NCCc1cc2c(-c3cnn4ncccc34)ccnc2[nH]1`, the midpoint of inhibition, the IC50, lay at 1000 nM. Still for that read-out and setting: to `CC#CC(=O)N1CCC[C@H]1C(=O)NCCc1cc2c(-c3cnn4ncccc34)ccnc2[nH]1` belongs 1000 nM; to `C#CC(=O)Nc1cccc(C(=O)N2CCC(c3cc4c(-c5cnn6ncccc56)ccnc4[nH]3)C2)c1` (stereo not drawn), under 1000 nM; to `C=CC(=O)N1CCC[C@H]1C(=O)N1CCN(Cc2cc3c(-c4cnn5ncccc45)ccnc3[nH]2)CC1`, 10000 nM. Molecule `C=CC(=O)N1CCC[C@H](C(=O)NCCc2cc3c(-c4cnn5ncccc45)ccnc3[nH]2)C1` yielded an IC50 of under 1000 nM. On the same count and under the same terms, to `c1cc(-c2ccc3[nH]nnc3c2)c2cc[nH]c2n1` belongs 10000 nM; to `CNC(=O)c1cc2c(-c3cnn4ncccc34)ccnc2[nH]1`, 1000 nM; to `C=CC(=O)N1CCC[C@H](C(=O)NCCc2cc3c(-c4cnn5ncccc45)c(Cl)cnc3[nH]2)C1`, 1000 nM. On the same count and under the same terms, then `C=CC(=O)Nc1cc(C(=O)N2CCC(c3cc4c(-c5cnn6ncccc56)ccnc4[nH]3)C2)ccc1OC` (stereo not drawn), with under 1000 nM; and `C=CC(=O)N1CCC[C@H]1C(=O)N1CC[C@@H](c2cc3c(-c4cnn5ncccc45)ccnc3[nH]2)C1`, with under 1000 nM. `CC(C)=CC(=O)N1CCC[C@H]1C(=O)NCCc1cc2c(-c3cnn4ncccc34)ccnc2[nH]1` displayed a 50% inhibitory concentration (IC50) of 1000 nM. For `C=CC(=O)NC(C)C(=O)NCCc1cc2c(-c3cnn4ncccc34)ccnc2[nH]1` (stereo not drawn), the IC50 is 1000 nM. Regarding `c1ccc(Cc2cc3c(-c4cnn5ncccc45)ccnc3[nH]2)cc1`, the IC50 stood at 10000 nM. The same measure, in the same setting: then `C=CC(=O)N1CCC1C(=O)NCCc1cc2c(-c3cnn4ncccc34)ccnc2[nH]1` (single isomer, unassigned), with under 1000 nM.
